Source: the supplement of paper PMC13380429

How the values were obtained:
Details in all cases: 72 h
Caco-2 [1] = experiment: cell viability relative to DMSO; higher = less toxic
Calu-3 [2] = experiment: as above
HepG2 [3] = experiment: as above
U2OS [4] = experiment: as above
Vero E6 [5] = experiment: as above
Calu-3 [6] = experiment: relative viability EC50 (midpoint between 100% and the lowest measured viability); higher = less toxic
HepG2 [7] = experiment: as above
U2OS [8] = experiment: as above
Vero E6 [9] = experiment: as above
Caco-2 [10] = experiment: drug sensitivity score (DSS) for viability; higher = more toxic; extreme values may be limits of the assay
Calu-3 [11] = experiment: as above
HepG2 [12] = experiment: as above
U2OS [13] = experiment: as above
Vero E6 [14] = experiment: as above

CC(C)=CCC/C(C)=C/CNCCNC1C2CC3CC(C2)CC1C3 (configuration not stated) [SQ-109]
cell viability (Caco-2 [1]; 1 nM): 92.5%
cell viability (Caco-2 [1]; 10 nM): 107%
cell viability (Caco-2 [1]; 100 nM): 81.7%
cell viability (Caco-2 [1]; 1000 nM): 90.6%
cell viability (Caco-2 [1]; 10000 nM): 74.2%
cell viability (Calu-3 [2]; 1 nM): 94.2%
cell viability (Calu-3 [2]; 10 nM): 111%
cell viability (Calu-3 [2]; 100 nM): 106%
cell viability (Calu-3 [2]; 1000 nM): 106%
cell viability (Calu-3 [2]; 10000 nM): 94%
cell viability (HepG2 [3]; 1 nM): 94.3%
cell viability (HepG2 [3]; 10 nM): 103%
cell viability (HepG2 [3]; 100 nM): 110%
cell viability (HepG2 [3]; 1000 nM): 103%
cell viability (HepG2 [3]; 10000 nM): 86.3%
cell viability (U2OS [4]; 1 nM): 102%
cell viability (U2OS [4]; 10 nM): 104%
cell viability (U2OS [4]; 100 nM): 99.5%
cell viability (U2OS [4]; 1000 nM): 103%
cell viability (U2OS [4]; 10000 nM): 93.6%
cell viability (Vero E6 [5]; 1 nM): 103%
cell viability (Vero E6 [5]; 10 nM): 95.8%
cell viability (Vero E6 [5]; 100 nM): 105%
cell viability (Vero E6 [5]; 1000 nM): 102%
cell viability (Vero E6 [5]; 10000 nM): 88.8%
relative viability EC50 (Calu-3 [6]): > 10 µM
relative viability EC50 (HepG2 [7]): > 10 µM
relative viability EC50 (U2OS [8]): > 10 µM
relative viability EC50 (Vero E6 [9]): > 10 µM
drug sensitivity score (Caco-2 [10]): 2.4
drug sensitivity score (Calu-3 [11]): 0
drug sensitivity score (HepG2 [12]): 0.1
drug sensitivity score (U2OS [13]): 0
drug sensitivity score (Vero E6 [14]): 0

CC(C)(C)Nc1nc(Nc2ccc(C(N)=O)cc2)cc(N)c1C#N [TC-Mps1-12]
cell viability (Caco-2 [1]; 1 nM): 94.9%
cell viability (Caco-2 [1]; 10 nM): 101%
cell viability (Caco-2 [1]; 100 nM): 102%
cell viability (Caco-2 [1]; 1000 nM): 95.9%
cell viability (Caco-2 [1]; 10000 nM): 72.1%
cell viability (Calu-3 [2]; 1 nM): 97.5%
cell viability (Calu-3 [2]; 10 nM): 103%
cell viability (Calu-3 [2]; 100 nM): 104%
cell viability (Calu-3 [2]; 1000 nM): 109%
cell viability (Calu-3 [2]; 10000 nM): 100%
cell viability (HepG2 [3]; 1 nM): 91.7%
cell viability (HepG2 [3]; 10 nM): 89.8%
cell viability (HepG2 [3]; 100 nM): 88.4%
cell viability (HepG2 [3]; 1000 nM): 66.2%
cell viability (HepG2 [3]; 10000 nM): 39.5%
cell viability (U2OS [4]; 1 nM): 93.6%
cell viability (U2OS [4]; 10 nM): 96.6%
cell viability (U2OS [4]; 100 nM): 94.8%
cell viability (U2OS [4]; 1000 nM): 95%
cell viability (U2OS [4]; 10000 nM): 62.9%
cell viability (Vero E6 [5]; 1 nM): 104%
cell viability (Vero E6 [5]; 10 nM): 102%
cell viability (Vero E6 [5]; 100 nM): 101%
cell viability (Vero E6 [5]; 1000 nM): 98.2%
cell viability (Vero E6 [5]; 10000 nM): 61.7%
relative viability EC50 (Calu-3 [6]): > 10 µM
relative viability EC50 (HepG2 [7]): 0.555 µM
drug sensitivity score (Caco-2 [10]): 1.8
drug sensitivity score (Calu-3 [11]): 0
drug sensitivity score (HepG2 [12]): 8
drug sensitivity score (U2OS [13]): 2.6
drug sensitivity score (Vero E6 [14]): 2.1

COc1ccc(C(=O)CC2(O)C(=O)Nc3c(Cl)ccc(Cl)c32)cc1 (configuration not stated) [YK-4-279]
cell viability (Caco-2 [1]; 1 nM): 105%
cell viability (Caco-2 [1]; 10 nM): 93.1%
cell viability (Caco-2 [1]; 100 nM): 103%
cell viability (Caco-2 [1]; 1000 nM): 93.3%
cell viability (Caco-2 [1]; 10000 nM): 63.8%
cell viability (Calu-3 [2]; 1 nM): 103%
cell viability (Calu-3 [2]; 10 nM): 93.2%
cell viability (Calu-3 [2]; 100 nM): 101%
cell viability (Calu-3 [2]; 1000 nM): 106%
cell viability (Calu-3 [2]; 10000 nM): 76.4%
cell viability (HepG2 [3]; 1 nM): 106%
cell viability (HepG2 [3]; 10 nM): 108%
cell viability (HepG2 [3]; 100 nM): 99.1%
cell viability (HepG2 [3]; 1000 nM): 94.5%
cell viability (HepG2 [3]; 10000 nM): 34.9%
cell viability (U2OS [4]; 1 nM): 104%
cell viability (U2OS [4]; 10 nM): 97.8%
cell viability (U2OS [4]; 100 nM): 106%
cell viability (U2OS [4]; 1000 nM): 95.6%
cell viability (U2OS [4]; 10000 nM): 45.7%
cell viability (Vero E6 [5]; 1 nM): 108%
cell viability (Vero E6 [5]; 10 nM): 102%
cell viability (Vero E6 [5]; 100 nM): 102%
cell viability (Vero E6 [5]; 1000 nM): 102%
cell viability (Vero E6 [5]; 10000 nM): 48.1%
relative viability EC50 (Calu-3 [6]): > 10 µM
relative viability EC50 (HepG2 [7]): 2.47 µM
relative viability EC50 (U2OS [8]): 2.5 µM
relative viability EC50 (Vero E6 [9]): 3.34 µM
drug sensitivity score (Caco-2 [10]): 2.8
drug sensitivity score (Calu-3 [11]): 0.6
drug sensitivity score (HepG2 [12]): 4.4
drug sensitivity score (U2OS [13]): 3.6
drug sensitivity score (Vero E6 [14]): 2.6

S=C(NCc1ccc2c(c1)OCO2)N1CCN(c2ncnc3c2oc2ccccc23)CC1 [amuvatinib]
cell viability (Caco-2 [1]; 1 nM): 95.2%
cell viability (Caco-2 [1]; 10 nM): 90.6%
cell viability (Caco-2 [1]; 100 nM): 97.1%
cell viability (Caco-2 [1]; 1000 nM): 84.5%
cell viability (Caco-2 [1]; 10000 nM): 68.3%
cell viability (Calu-3 [2]; 1 nM): 98.4%
cell viability (Calu-3 [2]; 10 nM): 92.7%
cell viability (Calu-3 [2]; 100 nM): 101%
cell viability (Calu-3 [2]; 1000 nM): 94.1%
cell viability (Calu-3 [2]; 10000 nM): 78.7%
cell viability (HepG2 [3]; 1 nM): 100%
cell viability (HepG2 [3]; 10 nM): 101%
cell viability (HepG2 [3]; 100 nM): 96.2%
cell viability (HepG2 [3]; 1000 nM): 84%
cell viability (HepG2 [3]; 10000 nM): 19%
cell viability (U2OS [4]; 1 nM): 104%
cell viability (U2OS [4]; 10 nM): 96.6%
cell viability (U2OS [4]; 100 nM): 100%
cell viability (U2OS [4]; 1000 nM): 95%
cell viability (U2OS [4]; 10000 nM): 65.1%
cell viability (Vero E6 [5]; 1 nM): 102%
cell viability (Vero E6 [5]; 10 nM): 104%
cell viability (Vero E6 [5]; 100 nM): 97.9%
cell viability (Vero E6 [5]; 1000 nM): 90.4%
cell viability (Vero E6 [5]; 10000 nM): 67.6%
relative viability EC50 (Calu-3 [6]): > 10 µM
relative viability EC50 (HepG2 [7]): 1.75 µM
drug sensitivity score (Caco-2 [10]): 2.8
drug sensitivity score (Calu-3 [11]): 1.4
drug sensitivity score (HepG2 [12]): 7.1
drug sensitivity score (U2OS [13]): 2.5
drug sensitivity score (Vero E6 [14]): 2.8
